In patent publication US12448364B2, “2, 4-diaminopyrimidine derivative and application thereof” (Shanghai Zheye Biotechnology Co., Ltd., priority 2018, dated 2025):
Like-named read-outs stand apart in the source and are kept apart here.

Legend:
ALK2 kinase = ALK2 kinase (Homo sapiens (Human), UniProt Q04771); assay: Inhibitory activity test of the compounds on ALK2 (Promega ALK2 Kinase Enzyme System, ADP-Glo); type: biochemical; details: ADP-Glo chemiluminescence, 65 μM ATP substrate mix; read-out: IC50 (nM) values of the inhibitory activities on ALK2
Experimental: 1. Inhibitory Activity Test of the Compounds on ALK2
ALK2 Kinase Enzyme System kit from Promega was used for the test. Reagents for kinase test was prepared first, the reagents comprising: (1)4×Kinase buffer 250 μL (containing 200 μM DTT); (2)5×Inhibitor mother liquor, i.e., the test compound was prepared into 10 mM mother liquor with DMSO, and the test compound was diluted into 5 mM (20 μL of 10 mM test compound mother liquor+20 μL of DMSO dissolved) with DMSO; (3)1×Kinase buffer (containing 1% DMSO) 200 μL; (4)1×Kinase buffer 40 μL; @Kinase solution 115 μL; (6)Substrate Mix (containing 65 μM ATP) 120 μL. The inhibitor working solution was then prepared, i.e., the test compound was prepared into 5 mM mother liquor with DMSO, 1 μL of 5 mM mother liquor was taken and was diluted into the concentration of 50000 nM by adding 99 μL 1×Kinase buffer; 20 μL of the solution of this concentration was taken, and 80 μL of 1×Kinase buffer (containing 1% DMSO) was added thereto to obtain the concentration of 10000 nM, 5 times dilution was carried out in this way, and a total of 6 concentration gradients were provided. 1 μL of the compound at each concentration was taken and added to a 384-well plate, and then 2 μL Kinase solution (160 mM Tris, 7.5; 80 mM MgCl2; 0.4 mg/ml BSA; 200 μM DTT; ALK2 kinase) was added to each well, and the plate was centrifuged at 1000 rpm for 20 seconds at room temperature, incubated for 30 minutes at 25° C.; then 2 μL of a mixture containing ATP and kinase substrate was added to each well, the plate was centrifuged at 1000 rpm for 20 seconds at room temperature, and incubated at 25° C. for 120 minutes. Then 5 μL of ADP-Glo™ reagent was added to each well, and the plate was incubated at 25° C. for 40 minutes; then 10 μL of Kinase Detection Reagent was added to each well, the plate was incubated at 25° C. for 30 minutes and then was tested; a microplate reader was used to record the chemiluminescence value, the curve was fitted with Origin 7.5, the IC50 (nM) value of the test substance on the ALK2 kinase activity was calculated.

hepcidin in HepG2 cells = assay: Inhibition test of compounds on hepcidin expression in HepG2 cells (hepcidin ELISA); type: cell-based, human; details: 48 hours incubation, hepcidin protein in supernatant by ELISA, read-out: IC50 (nM) values of the inhibitory activities on hepcidin in HepG2 cells
Experimental: 2. Inhibition Test of Compounds on Hepcidin Expression in HepG2 Cells
HepG2 cells (ATCC HB-8065) in the exponential growth phase were digested with trypsin-EDTA, inoculated into 96-well plates at 5000 cells/well, and cultured in MEM (10% FBS) medium at 37° C. under 5% CO2 conditions for 24 hours, the test compound dissolved in DMSO and diluted in the medium and at a gradient concentration was added to each culture well. The preparation method of the test compound is: a compound mother liquor at a concentration of 10 mM was prepared, and then the compound was diluted in a gradient. The highest concentration of the compound for test was 10 μM, and a total of 8 gradients were obtained by 5-fold dilution. The diluted compound was added to a 96-well plate covered with cells, 50 μL per well. After the compound was added, the plate was placed in an incubator stored at 37° C. and 5% CO2, and incubated for another 48 hours. After the incubation was completed, the 96-well plate was centrifuged at 1000 rpm for 5 minutes at room temperature, the supernatant was taken, ELISA sample loading and detecting were completed within 30 minutes. Hepcidin ELISA kit (Human Hepcidin Quantikine ELISA Kit, R&D systems, Cat #DHP250) was used to quantitatively detect hepcidin protein. […] After washing and color development, the absorbance value was determined with a microplate reader at 450 nm, and the concentration of hepcidin protein in the test sample was calculated according to the quasi-curve of human hepcidin protein determination, and the curve was fitted with Origin 7.5 software, the IC50 (nM) value on the inhibition of producing hepcidin preotein of HepG2 cells by the test compound was calculated.

Sequence of ALK2 kinase (Q04771 21-509): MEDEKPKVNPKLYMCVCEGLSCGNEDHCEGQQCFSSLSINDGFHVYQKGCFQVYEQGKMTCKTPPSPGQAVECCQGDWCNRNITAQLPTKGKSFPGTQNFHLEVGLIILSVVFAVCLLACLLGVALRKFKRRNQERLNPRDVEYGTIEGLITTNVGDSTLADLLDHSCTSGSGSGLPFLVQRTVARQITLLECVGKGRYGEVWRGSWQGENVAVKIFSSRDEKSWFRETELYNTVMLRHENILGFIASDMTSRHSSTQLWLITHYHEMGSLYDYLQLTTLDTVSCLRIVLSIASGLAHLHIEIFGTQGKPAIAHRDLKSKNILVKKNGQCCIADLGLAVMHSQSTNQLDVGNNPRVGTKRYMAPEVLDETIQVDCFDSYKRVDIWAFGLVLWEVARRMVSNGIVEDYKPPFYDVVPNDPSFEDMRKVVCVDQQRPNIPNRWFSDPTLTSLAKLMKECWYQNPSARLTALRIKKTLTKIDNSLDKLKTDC

| SMILES | IC50 (ALK2 kinase) | IC50 (hepcidin in HepG2 cells; Homo sapiens) | IC50 (hepcidin in HepG2 cells) |
| --- | --- | --- | --- |
| COc1cc(Nc2nccc(Nc3ccc(C)nc3-c3ccccn3)n2)ccc1C1CCN(C)CC1 [Compound 5, N^2-(3-methoxy-4-(1-methylpiperidin-4-yl)phenyl)-N^4-(6-methyl-2,2′-bipyridin-3-yl)pyrimidine-2,4-diamine] | ≤ 150 nM | 30 nM | – |
| COc1cc(Nc2nccc(Nc3cccnc3-c3ccccn3)n2)cc(OC)c1OC [Compound I*, reference compound] | ≥ 500 nM | – | 532 nM |

Now from value to compound:

| IC50 (ALK2 kinase) | IC50 (hepcidin in HepG2 cells; Homo sapiens) | IC50 (hepcidin in HepG2 cells) | SMILES |
| --- | --- | --- | --- |
| 150 to 500 nM | – | – | COc1cc(Nc2nccc(Nc3cccnc3-c3ccccn3)n2)ccc1C1CCOCC1 [Compound 1, N^4-(2,2′-bipyridin-3-yl)-N^2-(3-methoxy-4-(tetrahydro-2H-pyran-4-yl)phenyl)pyrimidine-2,4-diamine] |
| ≤ 150 nM | 14 nM | – | COc1cc(Nc2nccc(Nc3cccnc3-c3ccccn3)n2)ccc1C1CCN(C)CC1 [Compound 2, N^4-(2,2′-bipyridin-3-yl)-N^2-3-(methoxy-4-(1-methylpiperidin-4-yl)phenyl)pyrimidine-2,4-diamine] |
| 150 to 500 nM | – | – | COc1cc(Nc2ncc(OC)c(Nc3cccnc3-c3ccccn3)n2)ccc1C1CCOCC1 [Compound 4, N^4-(2,2′-bipyridin-3-yl)-5-methoxy-N^2-(3-methoxy-4-(tetrahydro-2H-pyran-4-yl)phenyl)pyrimidine-2,4-diamine] |
